Test results from patent US20250134952A1, “METHODS FOR IMPROVING THE EFFICACY OF HDAC INHIBITOR THERAPY AND PREDICTING THE RESPONSE TO TREATMENT WITH HDAC INHIBITOR” (INSTITUT NATIONAL DE LA SANTÉ ET DE LA RECHERCHE MÉDICALE, priority 2021, published 2025).

Tested on: chromatin remodeling (pericentromeric heterochromatin)
Assay: Chromatin remodeling with G9a inhibitor, effect of Tau (data not shown)
Assay type: cell-based

COc1cc2nc(N3CCCN(C)CC3)nc(NC3CCN(Cc4ccccc4)CC3)c2cc1OC [BIX 01294]
effect of Tau in preventing chromatin remodeling, compared with trichostatin A: same results
